Results reported in PMC8217813, “Bridging Computational Vaccinology and Vaccine Development Through Systematic Identification, Characterization, and Downselection of Conserved and Variable Circumsporozoite Protein CD4 T Cell Epitopes From Diverse Plasmodium falciparum Strains” (Frontiers in Immunology, 2021).
Peptide text beside a SMILES is read from it.

Tests used:
[1] = tested on: CD4 T cells co-cultured with autologous DCs from PBMCs; assay type: cell-based, human; details: positive = Stimulation Index ≥1.5-fold above baseline, 5 µg/mL peptide
HLA-DRB1*1301 = HLA-DRB1*1301 (Homo sapiens, UniProt P01903+P01911, A100E/A169T/K41T/L162R/M171V/P40S/Q125H/Q178H/Q39Y/Q99D/R42S/S66N/T262R/W38E/Y61H); assay: In vitro class II HLA binding competition assay; details: competition with fluorescent-labeled reference peptide, class II HLA monomers, 24-hours, test peptide 100,000 nM to 100 nM, time-resolved fluorescence
Procedure: (§1) EpiVax conducted in vitro quantification of peptide-HLA binding affinity utilizing a competition assay format per the methodology described in ([35]). Briefly, a fluorescent-labeled, high-binding reference peptide and titrating concentrations of test peptide were incubated in a 96-well plate format with limiting concentrations of class II HLA monomers in aqueous buffer for 24-hours. Post incubation, the mixtures were moved to a 96-well plate coated with anti-HLA-DR antibody to capture HLA-peptide complexes. Time-resolved fluorescence measurement of the bound labeled reference peptide complex present in each mixture were detected with a europium-linked probe via fluorescent spectrophotometry using a SpectraMax M5 system. HLA binding affinity of each test peptide was expressed as the percent inhibition of reference peptide binding. Percent inhibition values (across the test peptide titration range) were used to calculate the half maximal inhibitory concentration (IC50) of each test peptide. For these studies, test peptides were assessed using a range of final concentrations from 100,000 nM to 100 nM and all peptides were reconstituted in dimethyl sulfoxide (DMSO).

HLA-DRB1*0401 = molecular target: T1, HLA-DRB1*0401 (Homo sapiens, UniProt P01903+P01911, A100K/A169T/F76Y/I96L/K127E/L162R/M171V/N62H/P40V/Q125Y/R42H/S133A/S149N/S66Y/V115G/V209L/W38E); assay: In vitro class II HLA binding competition assay; details: competition with fluorescent-labeled reference peptide, class II HLA monomers, 24-hours, test peptide 100,000 nM to 100 nM, time-resolved fluorescence; read-out: IC50, DRB1*0401
T1 construct: purchased
Procedure: as §1

HLA-DRB1*0801 = HLA-DRB1*0801 (Homo sapiens, UniProt P01903+P01911, A100R/A103L/A169T/D86S/F76Y/H45Y/I96F/K41T/L162R/M171V/P40S/Q125H/Q178H/Q39Y/Q99D/R218S/R42G/S66Y/V115G/W38E); assay: In vitro class II HLA binding competition assay; details: competition with fluorescent-labeled reference peptide, class II HLA monomers, 24-hours, test peptide 100,000 nM to 100 nM, time-resolved fluorescence
Procedure: as §1

HLA-DRB1*1101 = molecular target: T2, HLA-DRB1*1101 (Homo sapiens, UniProt P01903+P01911, A100R/A169T/A87E/I96F/K41T/L162R/M171V/P40S/Q125H/Q178H/Q39Y/Q99D/R42S/S66Y/T262R/V115G/W38E); assay: In vitro class II HLA binding competition assay; details: competition with fluorescent-labeled reference peptide, class II HLA monomers, 24-hours, test peptide 100,000 nM to 100 nM, time-resolved fluorescence
T2 construct: purchased
Procedure: as §1

## CC(=O)N[C@@H](CCCCN)C(=O)N[C@@H](CCC(N)=O)C(=O)N[C@@H](CCC(=O)O)C(=O)N[C@@H](CC(N)=O)C(=O)N[C@@H](Cc1c[nH]c2ccccc12)C(=O)N[C@@H](Cc1ccc(O)cc1)C(=O)N[C@@H](CO)C(=O)N[C@@H](CC(C)C)C(=O)N[C@@H](CCCCN)C(=O)N[C@@H](CCCCN)C(=O)N[C@@H](CC(N)=O)C(=O)N[C@@H](CO)C(=O)N[C@@H](CCCNC(=N)N)C(=O)N[C@@H](CO)C(=O)N[C@@H](CC(C)C)C(=O)NCC(=O)N[C@@H](CCC(=O)O)C(=O)N[C@@H](CC(N)=O)C(=O)N[C@@H](CC(=O)O)C(N)=O [Cluster C2] (Ac-KQENWYSLKKNSRSLGEND-NH2)
[1]; DR1 donors N=5, ICCS after 14-day co-culture
  Percentage of donors demonstrating IFN-γ responses, DR1: 20%
[1]; DR1 donors N=5, ICCS
  Percentage of donors demonstrating IL-2 responses, DR1: 0%
  Percentage of donors demonstrating IL-4 responses, DR1: 40%
  Percentage of donors demonstrating IL-10 responses, DR1: 20%
  Percentage of donors demonstrating TNF-α responses, DR1: 0%
[1]; DR3 donors N=6, ICCS after 14-day co-culture
  Percentage of donors demonstrating IFN-γ responses, DR3: 33%
[1]; DR3 donors N=6, ICCS
  Percentage of donors demonstrating IL-2 responses, DR3: 0%
  Percentage of donors demonstrating IL-4 responses, DR3: 0%
  Percentage of donors demonstrating IL-10 responses, DR3: 50%
  Percentage of donors demonstrating TNF-α responses, DR3: 0%
[1]; DR4 donors N=10, ICCS after 14-day co-culture
  Percentage of donors demonstrating IFN-γ responses, DR4: 0%
[1]; DR4 donors N=10, ICCS
  Percentage of donors demonstrating IL-2 responses, DR4: 0%
  Percentage of donors demonstrating IL-4 responses, DR4: 10%
  Percentage of donors demonstrating IL-10 responses, DR4: 10%
  Percentage of donors demonstrating TNF-α responses, DR4: 0%
[1]; DR7 donors N=4, ICCS after 14-day co-culture
  Percentage of donors demonstrating IFN-γ responses, DR7: 0%
[1]; DR7 donors N=4, ICCS
  Percentage of donors demonstrating IL-2 responses, DR7: 0%
  Percentage of donors demonstrating IL-4 responses, DR7: 25%
  Percentage of donors demonstrating IL-10 responses, DR7: 50%
  Percentage of donors demonstrating TNF-α responses, DR7: 0%
[1]; DR8 donors N=4, ICCS after 14-day co-culture
  Percentage of donors demonstrating IFN-γ responses, DR8: 0%
[1]; DR8 donors N=4, ICCS
  Percentage of donors demonstrating IL-2 responses, DR8: 0%
  Percentage of donors demonstrating IL-4 responses, DR8: 0%
  Percentage of donors demonstrating IL-10 responses, DR8: 25%
  Percentage of donors demonstrating TNF-α responses, DR8: 0%
[1]; DR9 donors N=4, ICCS after 14-day co-culture
  Percentage of donors demonstrating IFN-γ responses, DR9: 25%
[1]; DR9 donors N=4, ICCS
  Percentage of donors demonstrating IL-2 responses, DR9: 0%
  Percentage of donors demonstrating IL-4 responses, DR9: 25%
  Percentage of donors demonstrating IL-10 responses, DR9: 25%
  Percentage of donors demonstrating TNF-α responses, DR9: 0%
[1]; DR11 donors N=4, ICCS after 14-day co-culture
  Percentage of donors demonstrating IFN-γ responses, DR11: 0%
[1]; DR11 donors N=4, ICCS
  Percentage of donors demonstrating IL-2 responses, DR11: 0%
  Percentage of donors demonstrating IL-4 responses, DR11: 0%
  Percentage of donors demonstrating IL-10 responses, DR11: 0%
  Percentage of donors demonstrating TNF-α responses, DR11: 0%
[1]; DR13 donors N=7, ICCS after 14-day co-culture
  Percentage of donors demonstrating IFN-γ responses, DR13: 0%
[1]; DR13 donors N=7, ICCS
  Percentage of donors demonstrating IL-2 responses, DR13: 0%
  Percentage of donors demonstrating IL-4 responses, DR13: 0%
  Percentage of donors demonstrating IL-10 responses, DR13: 29%
  Percentage of donors demonstrating TNF-α responses, DR13: 0%
[1]; DR15 donors N=7, ICCS after 14-day co-culture
  Percentage of donors demonstrating IFN-γ responses, DR15: 29%
[1]; DR15 donors N=7, ICCS
  Percentage of donors demonstrating IL-2 responses, DR15: 0%
  Percentage of donors demonstrating IL-4 responses, DR15: 0%
  Percentage of donors demonstrating IL-10 responses, DR15: 14%
  Percentage of donors demonstrating TNF-α responses, DR15: 0%
HLA-DRB1*1301
  IC50: 0.037 µM
HLA-DRB1*0401
  IC50: 10.8 µM
HLA-DRB1*0801
  IC50: 0.108 µM
HLA-DRB1*1101
  IC50: 0.395 µM
